Values quoted from earlier work in US8895557B2, “Pharmaceutical formulations of ecteinascidin compounds” (Pharma Mar, S.A., Sociedad Unipersonal, priority 2004, dated 2014).

How the values were obtained:
[1] = tested on: sarcoma and breast and ovarian carcinoma; conditions: phase I, patients with sarcoma and breast and ovarian carcinoma
[2] = tested on: human tumour xenografts, including melanoma and ovarian and breast carcinoma; conditions: human tumour xenografts in athymic mice
[3] = mannitol/phosphate lyophilised product reconstituted with 5 ml Water for Injection, ambient temperature

For `COc1cc2c(cc1O)CCN[C@]21CS[C@@H]2c3c(OC(C)=O)c(C)c4c(c3[C@H](COC1=O)N1C2C2c3c(cc(C)c(OC)c3O)C[C@@H]([C@@H]1O)N2C)OCO4` (stereo partly shown) [ET-743, Ecteinascidin 743], the clinical responses [1] is listed as “promising responses were observed”, the aqueous solubility is listed as “limited aqueous solubility” and the antineoplastic activity [2] is listed as “potent antineoplastic activity”. For the same molecule, the “time for which the reconstituted solution is stable” value [3] was “up to 24 h”.
